Laboratory results from the OligoGym collection.
Oligonucleotides are written 5' to 3', each unit as a sugar letter and its base; * is a phosphorothioate linkage, no mark a phosphodiester; rarer units and linkages stand in square brackets, end groups in braces. Plain capitals give the bases only. d = 2'-deoxy (DNA); r = 2'-OH (RNA)
Note: test concentration or dose not given here.

These substances were tested against UFC1 (assay: reporter assay of Huesken 2005). Conditions: siRNA.
“sense rGrArArCrUrCrGrGrUrGrGrUrUrUrGrGrArArAdTdT / antisense rUrUrUrCrCrArArArCrCrArCrCrGrArGrUrUrCdCdT” gave a normalised inhibition (eCFP-eYFP dual reporter) of 97.7%.
For “sense rUrCrArGrUrCrCrCrUrUrArUrCrCrGrGrUrArUdTdT / antisense rArUrArCrCrGrGrArUrArArGrGrGrArCrUrGrAdTdA”, the normalised inhibition (eCFP-eYFP dual reporter) was 88.9%.
Substance “sense rGrArUrCrArUrUrUrCrArArArCrCrUrUrUrGrUdTdT / antisense rArCrArArArGrGrUrUrUrGrArArArUrGrArUrCdCdG” has a normalised inhibition (eCFP-eYFP dual reporter) of 98.8%.
In the case of “sense rArUrArUrCrCrUrArCrUrArCrUrGrCrCrCrCrAdTdT / antisense rUrGrGrGrGrCrArGrUrArGrUrArGrGrArUrArUdGdT”, the normalised inhibition (eCFP-eYFP dual reporter) is reported as 78.2%.
Work on “sense rGrArArArUrArUrGrArGrUrUrUrGrArCrArUrCdTdT / antisense rGrArUrGrUrCrArArArCrUrCrArUrArUrUrUrCdAdG” yielded a normalised inhibition (eCFP-eYFP dual reporter) of 66.9%.
Work on “sense rCrUrUrArUrCrCrGrGrUrArUrGrUrGrGrArGrAdTdT / antisense rUrCrUrCrCrArCrArUrArCrCrGrGrArUrArArGdGdG” yielded a normalised inhibition (eCFP-eYFP dual reporter) of 78.4%.
“sense rCrUrGrGrGrUrCrCrArUrGrGrCrUrGrGrCrArGdTdT / antisense rCrUrGrCrCrArGrCrCrArUrGrGrArCrCrCrArGdCdC” gave a normalised inhibition (eCFP-eYFP dual reporter) of 60.5%.
In the case of “sense rUrGrGrUrUrCrCrGrArCrUrGrGrArGrUrCrCrAdTdT / antisense rUrGrGrArCrUrCrCrArGrUrCrGrGrArArCrCrAdAdT”, the normalised inhibition (eCFP-eYFP dual reporter) is reported as 71.9%.
With “sense rGrArCrArGrCrArArArGrArUrGrUrArCrArGrGdTdT / antisense rCrCrUrGrUrArCrArUrCrUrUrUrGrCrUrGrUrCdTdT” the normalised inhibition (eCFP-eYFP dual reporter) was 50.1%.
Substance “sense rArGrUrCrCrCrUrUrArUrCrCrGrGrUrArUrGrUdTdT / antisense rArCrArUrArCrCrGrGrArUrArArGrGrGrArCrUdGdA” has a normalised inhibition (eCFP-eYFP dual reporter) of 74.6%.
“sense rUrUrGrGrArArArArUrGrCrUrGrGrUrArUrArUdTdT / antisense rArUrArUrArCrCrArGrCrArUrUrUrUrCrCrArAdAdC” was tested, and the normalised inhibition (eCFP-eYFP dual reporter) was 56.8%.
With “sense rArArCrArArGrArArUrGrCrUrGrArCrArArCrGdTdT / antisense rCrGrUrUrGrUrCrArGrCrArUrUrCrUrUrGrUrUdGdT” the normalised inhibition (eCFP-eYFP dual reporter) was 43.3%.
“sense rArCrArArCrArArGrArArUrGrCrUrGrArCrArAdTdT / antisense rUrUrGrUrCrArGrCrArUrUrCrUrUrGrUrUrGrUdTdC” was tested, and the normalised inhibition (eCFP-eYFP dual reporter) was 86.4%.
In the case of “sense rArGrCrGrArCrUrGrArArGrGrArGrGrArArUrAdTdT / antisense rUrArUrUrCrCrUrCrCrUrUrCrArGrUrCrGrCrUdGdC”, the normalised inhibition (eCFP-eYFP dual reporter) is reported as 93.1%.
“sense rGrCrCrCrCrArGrArArArUrUrGrCrArGrUrUrCdTdT / antisense rGrArArCrUrGrCrArArUrUrUrCrUrGrGrGrGrCdAdG” gave a normalised inhibition (eCFP-eYFP dual reporter) of 61.7%.
Substance “sense rCrGrUrCrArUrCrCrArArCrArCrArArArGrArGdTdT / antisense rCrUrCrUrUrUrGrUrGrUrUrGrGrArUrGrArCrGdCdC” has a normalised inhibition (eCFP-eYFP dual reporter) of 86.3%.
“sense rCrCrGrGrUrArUrGrUrGrGrArGrArArCrArArCdTdT / antisense rGrUrUrGrUrUrCrUrCrCrArCrArUrArCrCrGrGdAdT” was tested, and the normalised inhibition (eCFP-eYFP dual reporter) was 72.3%.
“sense rGrGrGrUrGrCrArGrCrGrArCrUrGrArArGrGrAdTdT / antisense rUrCrCrUrUrCrArGrUrCrGrCrUrGrCrArCrCrCdAdC” showed a normalised inhibition (eCFP-eYFP dual reporter) of 85.9%.
“sense rUrGrGrCrArGrUrGrGrArArArUrCrCrCrUrGrAdTdT / antisense rUrCrArGrGrGrArUrUrUrCrCrArCrUrGrCrCrAdGdC” gave a normalised inhibition (eCFP-eYFP dual reporter) of 71.4%.
In the case of “sense rGrCrUrGrArCrArArCrGrArUrUrGrGrUrUrCrCdTdT / antisense rGrGrArArCrCrArArUrCrGrUrUrGrUrCrArGrCdAdT”, the normalised inhibition (eCFP-eYFP dual reporter) is reported as 78%.
“sense rGrCrUrGrGrCrArGrUrGrGrArArArUrCrCrCrUdTdT / antisense rArGrGrGrArUrUrUrCrCrArCrUrGrCrCrArGrCdCdA” was tested, and the normalised inhibition (eCFP-eYFP dual reporter) was 48.5%.
With “sense rCrCrUrGrArGrCrUrGrGrArUrGrGrArArArGrAdTdT / antisense rUrCrUrUrUrCrCrArUrCrCrArGrCrUrCrArGrGdAdA” the normalised inhibition (eCFP-eYFP dual reporter) was 120%.
For “sense rGrArCrGrGrArUrCrArUrUrUrCrArArArCrCrUdTdT / antisense rArGrGrUrUrUrGrArArArUrGrArUrCrCrGrUrCdAdG”, the normalised inhibition (eCFP-eYFP dual reporter) was 123%.
In the case of “sense rCrUrGrArUrCrUrGrArUrUrCrArGrArArGrGrGdTdT / antisense rCrCrCrUrUrCrUrGrArArUrCrArGrArUrCrArGdGdG”, the normalised inhibition (eCFP-eYFP dual reporter) is reported as 73.2%.
Work on “sense rCrCrGrGrArCrCrCrCrGrArGrArUrCrGrUrGrAdTdT / antisense rUrCrArCrGrArUrCrUrCrGrGrGrGrUrCrCrGrGdCdG” yielded a normalised inhibition (eCFP-eYFP dual reporter) of 56.6%.
With “sense rArUrGrGrArArArGrArCrArGrCrArArArGrArUdTdT / antisense rArUrCrUrUrUrGrCrUrGrUrCrUrUrUrCrCrArUdCdC” the normalised inhibition (eCFP-eYFP dual reporter) was 69.9%.
Substance “sense rArCrCrUrCrCrUrGrArArArUrArUrGrArGrUrUdTdT / antisense rArArCrUrCrArUrArUrUrUrCrArGrGrArGrGrUdCdA” has a normalised inhibition (eCFP-eYFP dual reporter) of 43.5%.
“sense rArGrUrUrUrGrArCrArUrCrGrArGrUrUrUrGrAdTdT / antisense rUrCrArArArCrUrCrGrArUrGrUrCrArArArCrUdCdA” gave a normalised inhibition (eCFP-eYFP dual reporter) of 122%.
Substance “sense rUrCrArUrCrCrArArCrArCrArArArGrArGrArAdTdT / antisense rUrUrCrUrCrUrUrUrGrUrGrUrUrGrGrArUrGrAdCdG” has a normalised inhibition (eCFP-eYFP dual reporter) of 93%.
For “sense rArCrCrUrUrUrGrUrGrGrGrCrCrArGrGrArArUdTdT / antisense rArUrUrCrCrUrGrGrCrCrCrArCrArArArGrGrUdTdT”, the normalised inhibition (eCFP-eYFP dual reporter) was 56.9%.
Substance “sense rGrGrArCrUrArGrCrUrCrArUrCrUrCrArUrGrGdTdT / antisense rCrCrArUrGrArGrArUrGrArGrCrUrArGrUrCrCdAdA” has a normalised inhibition (eCFP-eYFP dual reporter) of 61.7%.
“sense rArGrGrGrCrGrUrCrArUrCrCrArArCrArCrArAdTdT / antisense rUrUrGrUrGrUrUrGrGrArUrGrArCrGrCrCrCrUdTdC” showed a normalised inhibition (eCFP-eYFP dual reporter) of 107%.
In the case of “sense rUrGrArCrArArCrGrArUrUrGrGrUrUrCrCrGrAdTdT / antisense rUrCrGrGrArArCrCrArArUrCrGrUrUrGrUrCrAdGdC”, the normalised inhibition (eCFP-eYFP dual reporter) is reported as 76.1%.
In the case of “sense rArGrUrCrCrArArCrArArGrGrArArGrGrArArCdTdT / antisense rGrUrUrCrCrUrUrCrCrUrUrGrUrUrGrGrArCrUdCdC”, the normalised inhibition (eCFP-eYFP dual reporter) is reported as 83.5%.
Substance “sense rGrCrArArArGrArUrGrUrArCrArGrGrGrGrUrGdTdT / antisense rCrArCrCrCrCrUrGrUrArCrArUrCrUrUrUrGrCdTdG” has a normalised inhibition (eCFP-eYFP dual reporter) of 108%.
For “sense rUrArCrUrGrCrCrCrCrArGrArArArUrUrGrCrAdTdT / antisense rUrGrCrArArUrUrUrCrUrGrGrGrGrCrArGrUrAdGdT”, the normalised inhibition (eCFP-eYFP dual reporter) was 52.2%.
With “sense rGrUrArUrArUrCrCrArUrGrArCrCrUrCrCrUrGdTdT / antisense rCrArGrGrArGrGrUrCrArUrGrGrArUrArUrArCdCdA” the normalised inhibition (eCFP-eYFP dual reporter) was 96%.
In the case of “sense rCrArGrCrGrArCrUrGrArArGrGrArGrGrArArUdTdT / antisense rArUrUrCrCrUrCrCrUrUrCrArGrUrCrGrCrUrGdCdA”, the normalised inhibition (eCFP-eYFP dual reporter) is reported as 100%.
For “sense rUrGrGrGrUrCrCrArUrGrGrCrUrGrGrCrArGrUdTdT / antisense rArCrUrGrCrCrArGrCrCrArUrGrGrArCrCrCrAdGdC”, the normalised inhibition (eCFP-eYFP dual reporter) was 35.2%.
“sense rArArGrArUrGrUrArCrArGrGrGrGrUrGrGrCrAdTdT / antisense rUrGrCrCrArCrCrCrCrUrGrUrArCrArUrCrUrUdTdG” was tested, and the normalised inhibition (eCFP-eYFP dual reporter) was 62.3%.
For “sense rArArGrArCrArGrCrArArArGrArUrGrUrArCrAdTdT / antisense rUrGrUrArCrArUrCrUrUrUrGrCrUrGrUrCrUrUdTdC”, the normalised inhibition (eCFP-eYFP dual reporter) was 113%.
With “sense rArCrGrGrArUrCrArUrUrUrCrArArArCrCrUrUdTdT / antisense rArArGrGrUrUrUrGrArArArUrGrArUrCrCrGrUdCdA” the normalised inhibition (eCFP-eYFP dual reporter) was 106%.
“sense rArCrUrArGrCrUrCrArUrCrUrCrArUrGrGrCrUdTdT / antisense rArGrCrCrArUrGrArGrArUrGrArGrCrUrArGrUdCdC” gave a normalised inhibition (eCFP-eYFP dual reporter) of 53.8%.
Work on “sense rUrGrGrUrArUrArUrCrCrArUrGrArCrCrUrCrCdTdT / antisense rGrGrArGrGrUrCrArUrGrGrArUrArUrArCrCrAdGdC” yielded a normalised inhibition (eCFP-eYFP dual reporter) of 31.4%.
“sense rArUrUrGrCrArGrUrUrCrCrUrGrArGrCrUrGrGdTdT / antisense rCrCrArGrCrUrCrArGrGrArArCrUrGrCrArArUdTdT” showed a normalised inhibition (eCFP-eYFP dual reporter) of 61.6%.
In the case of “sense rCrArGrUrCrCrCrUrUrArUrCrCrGrGrUrArUrGdTdT / antisense rCrArUrArCrCrGrGrArUrArArGrGrGrArCrUrGdAdT”, the normalised inhibition (eCFP-eYFP dual reporter) is reported as 78.8%.
“sense rArUrCrCrArArCrArCrArArArGrArGrArArArUdTdT / antisense rArUrUrUrCrUrCrUrUrUrGrUrGrUrUrGrGrArUdGdA” showed a normalised inhibition (eCFP-eYFP dual reporter) of 69.1%.
Work on “sense rCrUrGrArCrGrGrArUrCrArUrUrUrCrArArArCdTdT / antisense rGrUrUrUrGrArArArUrGrArUrCrCrGrUrCrArGdGdC” yielded a normalised inhibition (eCFP-eYFP dual reporter) of 65.7%.
Work on “sense rArGrGrArArGrGrArArCrUrCrGrGrUrGrGrUrUdTdT / antisense rArArCrCrArCrCrGrArGrUrUrCrCrUrUrCrCrUdTdG” yielded a normalised inhibition (eCFP-eYFP dual reporter) of 61.8%.
Substance “sense rGrCrCrArGrGrArArUrGrUrGrCrCrCrArArArUdTdT / antisense rArUrUrUrGrGrGrCrArCrArUrUrCrCrUrGrGrCdCdC” has a normalised inhibition (eCFP-eYFP dual reporter) of 77.2%.
“sense rUrGrArArArUrArUrGrArGrUrUrUrGrArCrArUdTdT / antisense rArUrGrUrCrArArArCrUrCrArUrArUrUrUrCrAdGdG” was tested, and the normalised inhibition (eCFP-eYFP dual reporter) was 75.3%.
For “sense rGrGrCrUrCrUrGrGrGrGrCrUrGrGrGrUrCrCrAdTdT / antisense rUrGrGrArCrCrCrArGrCrCrCrCrArGrArGrCrCdAdT”, the normalised inhibition (eCFP-eYFP dual reporter) was 69.9%.
